Assay results from the supplement of paper PMC4862054.

Each compound was assayed on HDQ-P1 (assay: normalised response (% of control), CellTiter-Glo; higher = more viable cells (100 = DMSO, 0 = benzethonium chloride kill control)). Conditions: incubation time: 72 h.
Description: (§1)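 DSRT, 72 h incubation, CellTox Green / CellTiter-Glo readout. Signal is normalised to DMSO and benzethonium chloride controls. Value is the normalised response at the highest dose.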
Compound CN[C@@H](C)C(=O)N[C@H]1CN(C(=O)CC(C)C)CC[C@H]2CC[C@@H](C(=O)NC(c3ccccc3)c3ccccc3)N2C1=O [AT-406] (10000 nM) has a normalised response of 84.5%. Work on CCN(CC)CCCC(C)Nc1ccnc2cc(Cl)ccc12 (stereo not given) [Chloroquine] (100000 nM) yielded a normalised response of 0.97%. With CC(C)(C)c1nc(-c2cccc(NS(=O)(=O)c3c(F)cccc3F)c2F)c(-c2ccnc(N)n2)s1 [Dabrafenib] (2500 nM) the normalised response was 94%. Work on Cc1nc(C(=O)NCC(=O)O)c(O)c2ccc(Oc3ccccc3)cc12 [FG-4592] (10000 nM) yielded a normalised response of 92%. In the case of O=C(O)CNC(=O)c1c(O)c2ccccc2n(Cc2ccccc2)c1=O [IOX-2] (50000 nM), the normalised response was 91.1%. Compound CN(C)C(=N)NC(=N)N [Metformin] (100000 nM) has a normalised response of 95.4%. CN(Cc1cnc2nc(N)nc(N)c2n1)c1ccc(C(=O)N[C@@H](CCC(=O)O)C(=O)O)cc1 [Methotrexate] (50000 nM) gave a normalised response of 53.7%. C=CCN(/C=C1/C(=O)O[C@H](COC)[C@@]2(C)C1=C(O)C(=O)C1=C2[C@H](OC(C)=O)C[C@]2(C)C(=O)CC[C@@H]12)CC=C [Sonolisib] (10000 nM) was tested, and the normalised response was 72.1%.

These compounds were tested on Hs578T in the same assay as above. Conditions: incubation time: 72 h.
Description: as §1
CCn1c(C(=O)N(C2CC2)C2CC2)cc2c3c(ncn3C)c(Nc3cc(C)n(C)n3)nc21 (10000 nM) gave a normalised response of 96%. Work on CN[C@@H](C)C(=O)N[C@H]1CN(C(=O)CC(C)C)CC[C@H]2CC[C@@H](C(=O)NC(c3ccccc3)c3ccccc3)N2C1=O [AT-406] (10000 nM) yielded a normalised response of 94.1%. Work on CCN(CC)CCCC(C)Nc1ccnc2cc(Cl)ccc12 (stereo not given) [Chloroquine] (100000 nM) yielded a normalised response of 0.3%. For CC(C)(C)c1nc(-c2cccc(NS(=O)(=O)c3c(F)cccc3F)c2F)c(-c2ccnc(N)n2)s1 [Dabrafenib] (2500 nM), the normalised response was 88%. In the case of Cc1nc(C(=O)NCC(=O)O)c(O)c2ccc(Oc3ccccc3)cc12 [FG-4592] (10000 nM), the normalised response was 109%. Work on O=C(O)CNC(=O)c1c(O)c2ccccc2n(Cc2ccccc2)c1=O [IOX-2] (50000 nM) yielded a normalised response of 103%. CN(C)C(=N)NC(=N)N [Metformin] (100000 nM) was tested, and the normalised response was 92.6%. Compound CN(Cc1cnc2nc(N)nc(N)c2n1)c1ccc(C(=O)N[C@@H](CCC(=O)O)C(=O)O)cc1 [Methotrexate] (50000 nM) has a normalised response of 19.5%. Compound C=CCN(/C=C1/C(=O)O[C@H](COC)[C@@]2(C)C1=C(O)C(=O)C1=C2[C@H](OC(C)=O)C[C@]2(C)C(=O)CC[C@@H]12)CC=C [Sonolisib] (10000 nM) has a normalised response of 95.7%.

Each compound was assayed on MCF-10A in the same assay as above. Conditions: incubation time: 72 h.
Description: as §1
With CCn1c(C(=O)N(C2CC2)C2CC2)cc2c3c(ncn3C)c(Nc3cc(C)n(C)n3)nc21 (10000 nM) the normalised response was 86.6%. With CN[C@@H](C)C(=O)N[C@H]1CN(C(=O)CC(C)C)CC[C@H]2CC[C@@H](C(=O)NC(c3ccccc3)c3ccccc3)N2C1=O [AT-406] (10000 nM) the normalised response was 106%. In the case of CCN(CC)CCCC(C)Nc1ccnc2cc(Cl)ccc12 (stereo not given) [Chloroquine] (100000 nM), the normalised response was 1.88%. For CC(C)(C)c1nc(-c2cccc(NS(=O)(=O)c3c(F)cccc3F)c2F)c(-c2ccnc(N)n2)s1 [Dabrafenib] (2500 nM), the normalised response was 96%. In the case of Cc1nc(C(=O)NCC(=O)O)c(O)c2ccc(Oc3ccccc3)cc12 [FG-4592] (10000 nM), the normalised response was 107%. For O=C(O)CNC(=O)c1c(O)c2ccccc2n(Cc2ccccc2)c1=O [IOX-2] (50000 nM), the normalised response was 102%. In the case of CN(C)C(=N)NC(=N)N [Metformin] (100000 nM), the normalised response was 75.6%. CN(Cc1cnc2nc(N)nc(N)c2n1)c1ccc(C(=O)N[C@@H](CCC(=O)O)C(=O)O)cc1 [Methotrexate] (50000 nM) gave a normalised response of 105%. In the case of C=CCN(/C=C1/C(=O)O[C@H](COC)[C@@]2(C)C1=C(O)C(=O)C1=C2[C@H](OC(C)=O)C[C@]2(C)C(=O)CC[C@@H]12)CC=C [Sonolisib] (10000 nM), the normalised response was 88.4%.

Each compound was assayed on MDA-MB-231 in the same assay as above. Conditions: incubation time: 72 h.
Description: as §1
CCn1c(C(=O)N(C2CC2)C2CC2)cc2c3c(ncn3C)c(Nc3cc(C)n(C)n3)nc21 (10000 nM) gave a normalised response of 82.2%. Work on CN[C@@H](C)C(=O)N[C@H]1CN(C(=O)CC(C)C)CC[C@H]2CC[C@@H](C(=O)NC(c3ccccc3)c3ccccc3)N2C1=O [AT-406] (10000 nM) yielded a normalised response of 14.2%. CCN(CC)CCCC(C)Nc1ccnc2cc(Cl)ccc12 (stereo not given) [Chloroquine] (100000 nM) showed a normalised response of 0.24%. CC(C)(C)c1nc(-c2cccc(NS(=O)(=O)c3c(F)cccc3F)c2F)c(-c2ccnc(N)n2)s1 [Dabrafenib] (2500 nM) was tested, and the normalised response was 101%. Compound Cc1nc(C(=O)NCC(=O)O)c(O)c2ccc(Oc3ccccc3)cc12 [FG-4592] (10000 nM) has a normalised response of 96.1%. Work on O=C(O)CNC(=O)c1c(O)c2ccccc2n(Cc2ccccc2)c1=O [IOX-2] (50000 nM) yielded a normalised response of 85.1%. CN(C)C(=N)NC(=N)N [Metformin] (100000 nM) gave a normalised response of 91.2%. CN(Cc1cnc2nc(N)nc(N)c2n1)c1ccc(C(=O)N[C@@H](CCC(=O)O)C(=O)O)cc1 [Methotrexate] (50000 nM) gave a normalised response of 29.1%. Work on C=CCN(/C=C1/C(=O)O[C@H](COC)[C@@]2(C)C1=C(O)C(=O)C1=C2[C@H](OC(C)=O)C[C@]2(C)C(=O)CC[C@@H]12)CC=C [Sonolisib] (10000 nM) yielded a normalised response of 87.3%.

The compounds below were run on MDA-MB-436 in the same assay as above. Conditions: incubation time: 72 h.
Description: as §1
In the case of CCn1c(C(=O)N(C2CC2)C2CC2)cc2c3c(ncn3C)c(Nc3cc(C)n(C)n3)nc21 (10000 nM), the normalised response was 93.6%. Work on CN[C@@H](C)C(=O)N[C@H]1CN(C(=O)CC(C)C)CC[C@H]2CC[C@@H](C(=O)NC(c3ccccc3)c3ccccc3)N2C1=O [AT-406] (10000 nM) yielded a normalised response of 93.2%. CCN(CC)CCCC(C)Nc1ccnc2cc(Cl)ccc12 (stereo not given) [Chloroquine] (100000 nM) was tested, and the normalised response was 1.76%. Compound CC(C)(C)c1nc(-c2cccc(NS(=O)(=O)c3c(F)cccc3F)c2F)c(-c2ccnc(N)n2)s1 [Dabrafenib] (2500 nM) has a normalised response of 92.3%. Cc1nc(C(=O)NCC(=O)O)c(O)c2ccc(Oc3ccccc3)cc12 [FG-4592] (10000 nM) gave a normalised response of 98.8%.
